pIC50: −log10 of the molar value. Like-named read-outs stand apart in the source and are kept apart here.
How the values were obtained:
Assay type in all cases: cell-based, human
[1] = system: MX-1 (breast carcinoma); experiment: Cytotoxicity/growth inhibition assay, MX-1; conditions: read-out: IC50 (MX-1)
From the text: (§1) The human cancer cell lines DLD-1 (colorectal adenocarcinoma), LNCap (prostate carcinoma), and OVCAR-3 (ovarian carcinoma) were obtained from the American Type Culture Collection, Manassas, Va., U.S.A., and HL-60 (promyeloid myelocytic leukemia), MX-1 (breast carcinoma), P388, and P388ADR from the National Cancer Institute, Bethesda, Md., U.S.A. Carboplatin, doxorubicin, and melphalan were obtained from Sigma-Aldrich Chemical Company, St. Louis, Mo., U.S.A. The CellTiter-Glo assay kit was obtained from Promega Corporation, Madison, Wis., U.S.A., and the Cellular DNA Cytometric Analysis Reagent Kit from Roche Diagnostics Corporation, Indianapolis, Ind., U.S.A. Lambda DNA was obtained from New England Biolabs, Beverly, Mass., U.S.A., and SYBR-Gold from Molecular Probes, Inc., Eugene, Oreg., U.S.A. The DNeasy Tissue Kit was obtained from Qiagen Inc., Valencia, Calif., U.S.A., and AmpliTaq Gold DNA polymerase and PCR reagents from Applied Biosystems, Foster City, Calif., U.S.A. All products were used in accordance with manufacturer's directions. All assays were conducted in triplicate wells, with dimethyl sulfoxide (DMSO) solvent control. The extent of cell growth was expressed as a percentage of the signal from the solvent control wells.
(§2) Log-phase cells were trypsinized, collected by centrifugation, and resuspended in a small volume of fresh medium, and the density of viable cells was determined following Trypan Blue staining. Cells were diluted in fresh media (3×10^3 cells/mL for MX-1, 3×10^3 cells/mL for DLD-1, and 6×10^3 cells/mL for LNCap cells), the test compounds (concentrations between 0.1 and 200 μM, dissolved in DMSO, 50 μL) added immediately after dilution to achieve a final DMSO concentration of 0.5%, then the suspensions added at 150 μL/well to 96-well plates, and incubated for several hours to allow attachment in the case of adherent cells. The cells were cultured for approximately three doubling times (3 days for MX-1 and 4 days for DLD-1 and LNCap). The cells were then collected by centrifugation, and 100 μL of the culture supernatant was replaced by the CellTiter-Glo reagent. After incubation for 15 minutes at room temperature, and the plate was read with a luminometer.

[2] = system: DLD-1 (colorectal adenocarcinoma); experiment: Cytotoxicity/growth inhibition assay, DLD-1; conditions: read-out: IC50 (DLD-1)
From the text: as §1, §2

[3] = system: LNCap (prostate carcinoma); experiment: Cytotoxicity/growth inhibition assay, LNCap; conditions: read-out: IC50 (LNCap)
From the text: as §1, §2

[4] = MX-1 cells, 3 days culture, CellTiter-Glo, 0.1-200 μM tested
[5] = DLD-1 cells, 4 days culture, CellTiter-Glo, 0.1-200 μM tested
[6] = LNCap cells, 4 days culture, CellTiter-Glo, 0.1-200 μM tested

| SMILES | pIC50 [1, 4] | pIC50 [2, 5] | pIC50 [3, 6] | pIC50 ([1]; Homo sapiens, MX1, 72 h) | pIC50 ([2]; Homo sapiens, DLD-1, 96 h) | pIC50 ([3]; Homo sapiens, LNCaP, 96 h) |
| --- | --- | --- | --- | --- | --- | --- |
| CCS(=O)(=O)CCOP(=O)(N(CCCl)CCCl)N(CCCl)CCCl [Compound 1A] | 4.77 | 5.04 | 4.24 |  |  |  |
| O=P(OCCS(=O)(=O)CCS(=O)(=O)CCOP(=O)(N(CCCl)CCCl)N(CCCl)CCCl)(N(CCCl)CCCl)N(CCCl)CCCl [Compound 1B] | 5.40 | 5.60 | 5.29 |  |  |  |
| O=P(OCCS(=O)(=O)CCOP(=O)(N(CCCl)CCCl)N(CCCl)CCCl)(N(CCCl)CCCl)N(CCCl)CCCl [Compound 1C, di[2-[[bis[bis(2-chloroethyl)amino]phosphinyl]oxy]ethyl]sulfone] |  |  |  | 6.52 | 6.52 | 5.85 |
| C=CS(=O)(=O)CCOP(=O)(N(CCCl)CCCl)N(CCCl)CCCl [Compound 2A] | 5.49 | 5.85 | 3.98 |  |  |  |
| CC(C(C)S(=O)(=O)CCOP(=O)(N(CCCl)CCCl)N(CCCl)CCCl)S(=O)(=O)CCOP(=O)(N(CCCl)CCCl)N(CCCl)CCCl (centres unmarked) [Compound 2B] | ≤ 3.70 | 6.52 | 4.96 |  |  |  |
| CCCS(=O)(=O)CCOP(=O)(N(CCCl)CCCl)N(CCCl)CCCl [Compound 3A] | 4.94 | 5.04 | 4.17 |  |  |  |
| O=P(OCCS(=O)(=O)CCCS(=O)(=O)CCOP(=O)(N(CCCl)CCCl)N(CCCl)CCCl)(N(CCCl)CCCl)N(CCCl)CCCl [Compound 3B] | 5.13 | 5.37 | 4.83 |  |  |  |
| CC(C)S(=O)(=O)CCOP(=O)(N(CCCl)CCCl)N(CCCl)CCCl [Compound 4A] | 4.62 | 4.90 | 4.17 |  |  |  |
| O=P(OCCS(=O)(=O)CCCCS(=O)(=O)CCOP(=O)(N(CCCl)CCCl)N(CCCl)CCCl)(N(CCCl)CCCl)N(CCCl)CCCl [Compound 4B] | 5.39 | 5.54 | 4.94 |  |  |  |
| CC(C)CS(=O)(=O)CCOP(=O)(N(CCCl)CCCl)N(CCCl)CCCl [Compound 6A] | 5.34 | 5.17 | 4.75 |  |  |  |
| CC(C)(C)S(=O)(=O)CCOP(=O)(N(CCCl)CCCl)N(CCCl)CCCl [Compound 7A] | 4.69 | 4.66 | 3.78 |  |  |  |
| O=P(OCCS(=O)(=O)CCCCCCCCS(=O)(=O)CCOP(=O)(N(CCCl)CCCl)N(CCCl)CCCl)(N(CCCl)CCCl)N(CCCl)CCCl [Compound 7B] | 5.72 | 5.82 | 5.02 |  |  |  |
| CCC(C)CS(=O)(=O)CCOP(=O)(N(CCCl)CCCl)N(CCCl)CCCl (centres unmarked) [Compound 8A] | 4.76 | 5.15 | 4.39 |  |  |  |
| O=P(OCCS(=O)(=O)CCOCCS(=O)(=O)CCOP(=O)(N(CCCl)CCCl)N(CCCl)CCCl)(N(CCCl)CCCl)N(CCCl)CCCl [Compound 8B] | 4.96 | 5.19 | 4.55 |  |  |  |
| CC(C)CCS(=O)(=O)CCOP(=O)(N(CCCl)CCCl)N(CCCl)CCCl [Compound 9A] | 5.24 | 5.23 | 4.76 |  |  |  |
| O=P(OCCS(=O)(=O)CCOCCOCCS(=O)(=O)CCOP(=O)(N(CCCl)CCCl)N(CCCl)CCCl)(N(CCCl)CCCl)N(CCCl)CCCl [Compound 9B] | 5.22 | 5.21 | 4.59 |  |  |  |
| O=C(O)CCNC(=O)CS(=O)(=O)CCOP(=O)(N(CCCl)CCCl)N(CCCl)CCCl [Compound 39A] | 4.51 | 4.88 |  |  |  |  |
| O=C(O)CNC(=O)CS(=O)(=O)CCOP(=O)(N(CCCl)CCCl)N(CCCl)CCCl [Compound 40A] | 4.49 | 4.89 |  |  |  |  |
| CC(C)(C)OC(=O)CC(NC(=O)CS(=O)(=O)CCOP(=O)(N(CCCl)CCCl)N(CCCl)CCCl)C(N)=O (centres unmarked) [Compound 41A] | 4.53 | 4.97 |  |  |  |  |
| CC(C)(C)OC(=O)[C@@H]1CCCN1C(=O)CS(=O)(=O)CCOP(=O)(N(CCCl)CCCl)N(CCCl)CCCl [Compound 42A] | 5.12 | 5.33 |  |  |  |  |
| CC(NC(=O)CS(=O)(=O)CCOP(=O)(N(CCCl)CCCl)N(CCCl)CCCl)C(=O)OC(C)(C)C (centres unmarked) [Compound 44A] | 4.46 | 4.95 |  |  |  |  |
| CC(C)(C)OC(=O)CN1CCN(C(=O)CS(=O)(=O)CCOP(=O)(N(CCCl)CCCl)N(CCCl)CCCl)CC1 [Compound 47A] | 4.80 | 5.03 |  |  |  |  |
| COCCNC(=O)CS(=O)(=O)CCOP(=O)(N(CCCl)CCCl)N(CCCl)CCCl [Compound 48A] | 5.36 | 4.81 |  |  |  |  |

Source: patent publication US8093231B2, “Sulfonylethyl phosphorodiamidates” (Telik, Inc., priority 2004, dated 2012)
